Measurements: publication PMC6979384, “Characterization of the plant homeodomain (PHD) reader family for their histone tail interactions” (Epigenetics & Chromatin, 2020)

How the values were obtained:
Test in all cases: Histone peptide microarray
Format in all cases: binding, human
[1] = test system: KDM5A (1); details: GST-tagged KDM5A (1); histone peptide array; arrays performed twice, n of 4
Procedure, shortened: (§1)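 GST-tagged PHD finger readers were expressed, purified and applied at 0.5 μM to a microarray of 293 synthetic histone peptides carrying single or combinatorial PTMs, using an optimized protocol. Binding signals are averages with standard deviation from 4 replicates.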

[2] = test system: ING1; details: GST-tagged ING1; histone peptide array; arrays performed twice, n of 4
Procedure, shortened: as §1

[3] = test system: DPF2 (PPC2W2); details: GST-tagged DPF2 (PPC2W2 = Dual PHD + C2W2-type Zn-finger); histone peptide array; arrays performed twice, n of 4
Procedure, shortened: as §1

[4] = test system: ING4; details: GST-tagged ING4; histone peptide array; arrays performed twice, n of 4
Procedure, shortened: as §1

[5] = test system: ING5; details: GST-tagged ING5; histone peptide array; arrays performed twice, n of 4
Procedure, shortened: as §1

[6] = test system: BAZ2B; details: GST-tagged BAZ2B; histone peptide array; arrays performed twice, n of 4
Procedure, shortened: as §1

[7] = test system: ING3; details: GST-tagged ING3; histone peptide array; arrays performed twice, n of 4
Procedure, shortened: as §1

[8] = test system: ING2; details: GST-tagged ING2; histone peptide array; arrays performed twice, n of 4
Procedure, shortened: as §1

[9] = test system: PHF8; details: GST-tagged PHF8; histone peptide array; arrays performed twice, n of 4
Procedure, shortened: as §1

[10] = test system: PHF21A; details: GST-tagged PHF21A; histone peptide array; arrays performed twice, n of 4
Procedure, shortened: as §1

[11] = test system: RAG2; details: GST-tagged RAG2; histone peptide array; arrays performed twice, n of 4
Procedure, shortened: as §1

[12] = test system: KDM7A; details: GST-tagged KDM7A; histone peptide array; arrays performed twice, n of 4
Procedure, shortened: as §1

[13] = test system: KDM5B (3); details: GST-tagged KDM5B (3); histone peptide array; arrays performed twice, n of 4
Procedure, shortened: as §1

[14] = test system: CHD5 (PCC); details: GST-tagged CHD5 (PCC = PHD + Dual Chromodomain); histone peptide array; arrays performed twice, n of 4
Procedure, shortened: as §1

[15] = test system: CHD5 (PPCC); details: GST-tagged CHD5 (PPCC = Dual PHD + Dual Chromodomain); histone peptide array; arrays performed twice, n of 4
Procedure, shortened: as §1

[16] = test system: MORC3 (CW); details: GST-tagged MORC3 (CW = CW-type Zn-finger); histone peptide array; arrays performed twice, n of 4
Procedure, shortened: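 Purified PHD finger domains fused to GST are screened against 293 synthetic histone peptides bearing one or several post-translational modifications. The protein is used at 0.5 μM, and the signal from four replicate arrays is averaged, with standard deviation given.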

[17] = test system: BPTF (PB); details: GST-tagged BPTF (PB = PHD + Bromodomain); histone peptide array; arrays performed twice, n of 4
Procedure, shortened: as §1

[18] = test system: PHF2; details: GST-tagged PHF2; histone peptide array; arrays performed twice, n of 4
Procedure, shortened: as §1

[19] = test system: CHD4 (PPCC); details: GST-tagged CHD4 (PPCC = Dual PHD + Dual Chromodomain); histone peptide array; arrays performed twice, n of 4
Procedure, shortened: as §1

[20] = test system: KDM5A (3); details: GST-tagged KDM5A (3); histone peptide array; arrays performed twice, n of 4
Procedure, shortened: as §1

[21] = test system: PHF13; details: GST-tagged PHF13; histone peptide array; arrays performed twice, n of 4
Procedure, shortened: as §1

[22] = test system: KDM4C (TTP); details: GST-tagged KDM4C (TTP = Tandem Tudor domain + PHD); histone peptide array; arrays performed twice, n of 4
Procedure, shortened: as §1

[23] = test system: PHRF1 (RP); details: GST-tagged PHRF1 (RP); histone peptide array; arrays performed twice, n of 4
Procedure, shortened: as §1

[24] = test system: TRIM66 (PB); details: GST-tagged TRIM66 (PB = PHD + Bromodomain); histone peptide array; arrays performed twice, n of 4
Procedure, shortened: as §1

[25] = test system: TAF3; details: GST-tagged TAF3; histone peptide array; arrays performed twice, n of 4
Procedure, shortened: as §1

[26] = test system: KDM5B (1); details: GST-tagged KDM5B (1); histone peptide array; arrays performed twice, n of 4
Procedure, shortened: as §1

[27] = test system: DIDO1; details: GST-tagged DIDO1; histone peptide array; arrays performed twice, n of 4
Procedure, shortened: as §1

[28] = test system: SP140L; details: GST-tagged SP140L; histone peptide array; arrays performed twice, n of 4
Procedure, shortened: as §1

[29] = test system: PHF23; details: GST-tagged PHF23; histone peptide array; arrays performed twice, n of 4
Procedure, shortened: as §1

[30] = test system: AIRE (PP); details: GST-tagged AIRE (PP); histone peptide array; arrays performed twice, n of 4
Procedure, shortened: as §1

[31] = test system: MLL5; details: GST-tagged MLL5; histone peptide array; arrays performed twice, n of 4
Procedure, shortened: as §1

| Substance | Array Heatmap signal, KDM5A (1) [1] | Array Heatmap signal, ING1 [2] | Array Heatmap signal, DPF2 (PPC2W2) [3] | Array Heatmap signal, ING4 [4] | Array Heatmap signal, ING5 [5] | Array Heatmap signal, BAZ2B [6] | Array Heatmap signal, ING3 [7] | Array Heatmap signal, ING2 [8] | Array Heatmap signal, PHF8 [9] | Array Heatmap signal, PHF21A [10] | Array Heatmap signal, RAG2 [11] | Array Heatmap signal, KDM7A [12] | Array Heatmap signal, KDM5B (3) [13] | Array Heatmap signal, CHD5 (PCC) [14] | Array Heatmap signal, CHD5 (PPCC) [15] | Array Heatmap signal, MORC3 (CW) [16] | Array Heatmap signal, BPTF (PB) [17] | Array Heatmap signal, PHF2 [18] | Array Heatmap signal, CHD4 (PPCC) [19] | Array Heatmap signal, KDM5A (3) [20] | also measured |
| --- | --- | --- | --- | --- | --- | --- | --- | --- | --- | --- | --- | --- | --- | --- | --- | --- | --- | --- | --- | --- | --- |
| H3R2me1 + K4me2: H3 1-20 | 0.4465 | 0.6158 | 0.7133 | 0.4775 | 0.3522 | 0.4449 | 0.5383 | 0.678 | 0.4684 | 0.4826 | 0.5456 | 0.344 | 0.6308 | 0.8739 | 0.5419 | 0.6321 | 0.3634 | 0.6699 | 0.6115 | 0.6755 | Array Heatmap signal, PHF13 [21]: 0.6859; Array Heatmap signal, KDM4C (TTP) [22]: 0.4903; Array Heatmap signal, PHRF1 (RP) [23]: 0.5537; Array Heatmap signal, TRIM66 (PB) [24]: 0.6589; Array Heatmap signal, TAF3 [25]: 0.4954; Array Heatmap signal, KDM5B (1) [26]: 0.6024; Array Heatmap signal, DIDO1 [27]: 0.7623; Array Heatmap signal, SP140L [28]: 0.3804; Array Heatmap signal, PHF23 [29]: 0.6929; Array Heatmap signal, AIRE (PP) [30]: 0.3934; Array Heatmap signal, MLL5 [31]: 0.577 |
| H3R2me1 + K4me3 + K9ac + K14ac + K18ac: H3 1-20 | 0.4772 | 0.6321 | 0.7016 | 0.4735 | 0.3861 | 0.5242 | 0.5459 | 0.7542 | 0.711 | 0.4576 | 0.5848 | 0.4977 | 0.6033 | 0.7637 | 0.5534 | 0.7963 | 0.497 | 0.7659 | 0.5338 | 1 | Array Heatmap signal, PHF13 [21]: 0.6575; Array Heatmap signal, KDM4C (TTP) [22]: 0.6022; Array Heatmap signal, PHRF1 (RP) [23]: 0.4594; Array Heatmap signal, TRIM66 (PB) [24]: 0.5379; Array Heatmap signal, TAF3 [25]: 0.3972; Array Heatmap signal, KDM5B (1) [26]: 0.6999; Array Heatmap signal, DIDO1 [27]: 0.9369; Array Heatmap signal, SP140L [28]: 0.3363; Array Heatmap signal, PHF23 [29]: 0.7743; Array Heatmap signal, AIRE (PP) [30]: 0.4342; Array Heatmap signal, MLL5 [31]: 0.7798 |
| H3R2me1 + K4me3: H3 1-20 | 0.4891 | 0.6223 | 0.645 | 0.4768 | 0.3615 | 0.4816 | 0.5249 | 0.6934 | 0.5511 | 0.4726 | 0.5131 | 0.6442 | 0.6417 | 0.789 | 0.5498 | 0.559 | 0.4045 | 0.6232 | 0.5344 | 0.7567 | Array Heatmap signal, PHF13 [21]: 0.6851; Array Heatmap signal, KDM4C (TTP) [22]: 0.6626; Array Heatmap signal, PHRF1 (RP) [23]: 0.4461; Array Heatmap signal, TRIM66 (PB) [24]: 0.573; Array Heatmap signal, TAF3 [25]: 0.4375; Array Heatmap signal, KDM5B (1) [26]: 0.7101; Array Heatmap signal, DIDO1 [27]: 0.7532; Array Heatmap signal, SP140L [28]: 0.3558; Array Heatmap signal, PHF23 [29]: 0.6587; Array Heatmap signal, AIRE (PP) [30]: 0.5251; Array Heatmap signal, MLL5 [31]: 0.6848 |
| H3R2me2a + K4ac + K9ac + K14ac + K18ac: H3 1-20 | 0.4917 | 0.488 | 0.6307 | 0.4485 | 0.3422 | 0.5184 | 0.5009 | 0.5976 | 0.3535 | 0.4733 | 0.259 | 0.4047 | 0.4924 | 0.8359 | 0.5571 | 0.3697 | 0.3551 | 0.4783 | 0.5562 | 0.405 | Array Heatmap signal, PHF13 [21]: 0.6029; Array Heatmap signal, KDM4C (TTP) [22]: 0.4988; Array Heatmap signal, PHRF1 (RP) [23]: 0.4078; Array Heatmap signal, TRIM66 (PB) [24]: 0.5934; Array Heatmap signal, TAF3 [25]: 0.2624; Array Heatmap signal, KDM5B (1) [26]: 0.6453; Array Heatmap signal, DIDO1 [27]: 0.6585; Array Heatmap signal, SP140L [28]: 0.3281; Array Heatmap signal, PHF23 [29]: 0.5405; Array Heatmap signal, AIRE (PP) [30]: 0.481; Array Heatmap signal, MLL5 [31]: 0.5333 |
